# Results: patent publication US8354534B2, “Selective opioid compounds” (Alkermes, Inc., priority 2008, dated 2013)
# Test system: morphine inhibition of prostaglandin E2 (PGE2) induced diarrhea
# Assay: Antagonism of morphine-inhibited diarrhea in mice
# Assay type: in vivo, mice (Swiss-Webster)
# Settings: morphine 1 mg/kg s.c., PGE2 320 μg/kg at 30 min, watery stools observed, result shown only in figure
# Description: Albino mice of either sex (Swiss-Webster) weighing 20-30 g were used to determine the ability of an opioid antagonist to antagonize morphine inhibition of prostaglandin E2 (PGE2) induced diarrhea according to the method of Dajani et al. (1979). Briefly, mice are treated at time 0 with morphine, 1 mg/kg s.c. and an opioid antagonist, 60, 180, 240, 300, 360, 480, or 720 mg/kg orally; or 3, 10, 30, 100 or 140 mg/kg i.p; or saline, 0.1 ml/10 gm body weight orally or i.p. Mice are then treated at 30 min with PGE2, 320 μg/kg which consistently produced watery stools in the absence of morphine. […] Eleven to 24 mice were used per dose of an opioid antagonist for the oral and 6 are used for the i.p. routes. Data was analyzed using Fisher's exact probability test (Siegel, 1956). These studies were repeated using naltrexone, 0.005, 0.01, 0.05, 0.1, and 5 mg/kg i.p. and 0.5, 1, 2, and 4 mg/kg orally.
row,SMILES,Inhibition of morphine blockade of PGE2-induced diarrhea
1,NC(=O)c1ccc2c(c1O)[C@]13CCN(CC4CC4)[C@H](C2)[C@]1(O)CC[C@@H](NC(=O)[C@@H](N)CC(=O)O)C3 [Compound 12],Inhibition of morphine blockade of PGE2-induced diarrhea
2,NC(=O)c1ccc2c(c1O)[C@]13CCN(CC4CC4)[C@H](C2)[C@]1(O)CC[C@@H](NC(CC(=O)O)C(=O)O)C3 (some centres unmarked) [Compound 13],Inhibition of morphine blockade of PGE2-induced diarrhea
